# Results as given in the NIST ThermoML archive (doi:10.1021/je034023f).
# ± gives the expanded uncertainty stated by the source.
# Test: Henry's Law constant (molality scale); of the first substance listed, at infinite dilution; mn = molality of the nth substance listed, in mol/kg
# Details: Liquid, m1 = 0
compound,measurement,setting,value
O=C=O [carbon dioxide] + CCCCn1cc[n+](C)c1.F[P-](F)(F)(F)(F)F,Henry's Law constant,293.15 K,1200 ± 80 kPa·kg/mol
same,Henry's Law constant,313.15 K,1890 ± 80 kPa·kg/mol
same,Henry's Law constant,333.15 K,2700 ± 80 kPa·kg/mol
same,Henry's Law constant,353.15 K,3570 ± 80 kPa·kg/mol
same,Henry's Law constant,373.15 K,4470 ± 80 kPa·kg/mol
same,Henry's Law constant,393.15 K,5490 ± 80 kPa·kg/mol
